Measurements taken from publication PMC8957926, “Identification of a Novel Chromate and Selenite Reductase FesR in Alishewanella sp. WH16-1” (Frontiers in Microbiology, 2022).

Key:
FesR [1] = biological target: T1, FesR (Alishewanella sp. WH16-1, UniProt A0A0T5PLD3, R385A); experiment: enhancement of Cr(VI) and Se(IV) reduction by added FAD; format: biochemical; conditions: […] FAD, […] NADPH, […] K2CrO4 or Na2SeO3, optimum pH and temperature (pH […] °C)
T1 construct: gene AAY72_06850; Full-length, no signal peptide predicted, GST-tagged (pGEX-6p-1), eluted with glutathione, expressed in E. coli BL21(DE3); predicted 127 kDa with tag; FAD domain 16-520, two 4Fe-4S clusters 525-625
T1 sequence (A0A0T5PLD3 1-919 R385A): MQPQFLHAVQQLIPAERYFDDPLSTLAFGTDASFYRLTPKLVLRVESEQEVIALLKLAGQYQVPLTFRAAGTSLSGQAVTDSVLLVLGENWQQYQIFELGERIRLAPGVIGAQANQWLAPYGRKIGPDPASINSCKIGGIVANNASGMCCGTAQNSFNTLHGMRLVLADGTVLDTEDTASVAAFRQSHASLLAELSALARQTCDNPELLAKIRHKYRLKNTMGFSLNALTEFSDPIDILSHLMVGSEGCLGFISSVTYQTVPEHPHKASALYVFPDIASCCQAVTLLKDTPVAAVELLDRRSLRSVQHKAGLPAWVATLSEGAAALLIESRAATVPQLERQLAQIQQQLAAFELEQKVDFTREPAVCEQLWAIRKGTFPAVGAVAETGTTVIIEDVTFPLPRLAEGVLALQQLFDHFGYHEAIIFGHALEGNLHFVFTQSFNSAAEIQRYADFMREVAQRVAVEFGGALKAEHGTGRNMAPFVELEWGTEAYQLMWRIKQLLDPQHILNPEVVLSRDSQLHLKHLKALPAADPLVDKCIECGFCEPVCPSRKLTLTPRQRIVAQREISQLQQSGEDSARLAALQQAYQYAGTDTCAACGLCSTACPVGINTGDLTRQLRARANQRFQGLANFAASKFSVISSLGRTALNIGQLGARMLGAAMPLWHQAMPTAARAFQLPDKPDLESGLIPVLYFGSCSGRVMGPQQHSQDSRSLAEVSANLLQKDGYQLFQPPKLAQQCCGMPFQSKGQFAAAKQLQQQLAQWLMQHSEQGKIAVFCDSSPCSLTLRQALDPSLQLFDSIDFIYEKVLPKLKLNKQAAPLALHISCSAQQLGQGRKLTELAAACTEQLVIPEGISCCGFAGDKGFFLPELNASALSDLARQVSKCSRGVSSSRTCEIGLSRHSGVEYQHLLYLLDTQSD

O=[Se](O)O = experiment: purified protein; conditions: 1 mmol/L NADPH, pH 7.0, 50 °C, Tris-HCl, 10 min, no added FAD
FesR [2] = biological target: T2, FesR (Alishewanella sp. WH16-1, UniProt A0A0T5PLD3); experiment: residual Cr(VI) by diphenylcarbazide colorimetry; format: biochemical; conditions: 1 mmol/L NADPH, pH 7.0, 50 °C, Tris-HCl, 10 min, no added FAD
T2 construct: Full-length, no signal peptide predicted, GST-tagged (pGEX-6p-1), eluted with glutathione, expressed in E. coli BL21(DE3); predicted 127 kDa with tag; FAD domain 16-520, two 4Fe-4S clusters 525-625

Cc1cc2nc3c(=O)[nH]c(=O)nc-3n(C[C@H](O)[C@H](O)[C@H](O)COP(=O)(O)OP(=O)(O)OC[C@H]3O[C@@H](n4cnc5c(N)ncnc54)[C@H](O)[C@@H]3O)c2cc1C [FAD]
enhancement of Cr(VI) and Se(IV) reduction by added FAD (FesR [1]): FAD couldn’t enhance the enzyme activity of FesR when the predicted FAD-binding residue Arg385 was mutated

FesR (Alishewanella sp. WH16-1)
Km (O=[Se](O)O): 1164.0 ± 89.4 µM

[O]=[Cr](=[O])([OH])[OH] [Cr(VI)]
Km (FesR [2]): 1680 ± 126 µM
